This note sets out measurements from patent US20060252683A1, “Preparation of a peptide compound (SYRAPRO-2000) and its use for the activation of protein phosphatase-2A1 enzyme” (priority 2005, published 2006).

The test concerns the target protein phosphatase-2A1 (Homo sapiens, UniProt P67775). The test is described as follows: Activation of protein phosphatase-2A1 in intact Jurkat cells (DEAE Sepharose fractions of extracts assayed). It is filed as cell-based. More on the design: Protein phosphatase-2A1 purified from CD^4+ T cells as described in materials and method; endogenous in cells; host or cells: Jurkat cells; enzyme purified by DEAE Sepharose, Sephacryl S-300 HR and poly-L-lysine Agarose. Particulars: Jurkat cells treated with 1000 nM for 1 hour, 0.001% DMSO. On the procedure: Jurkat cells (a CD^4+ T cell line) were grown in RPMI 1640 and 10% (v/v) fetal bovine serum. 1600 ml of cell suspension (10^6 cells per ml) were split into two flasks and one was treated with SYRAPRO-2000 for 1 hour (circles) while the other was not (squares). The cells from each flask were collected by centrifugation, washed with 50 mM Imidazole-Cl pH 7.2 plus 150 mM NaCl and then homogenized in homogenization buffer as described in materials and methods. The homogenate from each flask was chromatographed on a DEAE Sepharose column and the eluted fractions were assayed for type 2A protein phosphatase activity as described in materials and method. Similar results were obtained in 3 independent experiments.
The effect of synthesized SYRAPRO-2000 on protein phosphatase-2A1 can be determined in intact cells. Jurkat cells, a human CD^4+ T transformed cell line. Jurkat cells are grown in RPMI 1680 medium supplemented with 5% (v/v) fetal bovine serum and antibiotics and treated or not with 1 μM of SYRAPRO-2000 for 60 minutes. Following treatment with SYRAPRO-2000, cells are harvested by centrifugation, washed and homogenized. A cell extract is prepared by centrifugation and loaded onto a DEAE Sepharose column which is washed and eluted with a liner gradient of buffer plus 0 mM NaCl to buffer plus 400 mM NaCl. […]

Sequence of protein phosphatase-2A1 (P67775 whole entry): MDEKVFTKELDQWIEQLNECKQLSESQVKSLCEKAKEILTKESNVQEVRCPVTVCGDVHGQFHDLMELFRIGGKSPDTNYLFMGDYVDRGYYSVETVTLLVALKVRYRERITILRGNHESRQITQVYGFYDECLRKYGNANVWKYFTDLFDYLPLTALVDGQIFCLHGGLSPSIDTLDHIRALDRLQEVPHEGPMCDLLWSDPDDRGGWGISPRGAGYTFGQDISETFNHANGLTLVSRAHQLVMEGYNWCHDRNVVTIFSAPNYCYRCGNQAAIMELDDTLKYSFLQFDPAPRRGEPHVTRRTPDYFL
Sequence of protein phosphatase-2A1 (P30153 whole entry partner): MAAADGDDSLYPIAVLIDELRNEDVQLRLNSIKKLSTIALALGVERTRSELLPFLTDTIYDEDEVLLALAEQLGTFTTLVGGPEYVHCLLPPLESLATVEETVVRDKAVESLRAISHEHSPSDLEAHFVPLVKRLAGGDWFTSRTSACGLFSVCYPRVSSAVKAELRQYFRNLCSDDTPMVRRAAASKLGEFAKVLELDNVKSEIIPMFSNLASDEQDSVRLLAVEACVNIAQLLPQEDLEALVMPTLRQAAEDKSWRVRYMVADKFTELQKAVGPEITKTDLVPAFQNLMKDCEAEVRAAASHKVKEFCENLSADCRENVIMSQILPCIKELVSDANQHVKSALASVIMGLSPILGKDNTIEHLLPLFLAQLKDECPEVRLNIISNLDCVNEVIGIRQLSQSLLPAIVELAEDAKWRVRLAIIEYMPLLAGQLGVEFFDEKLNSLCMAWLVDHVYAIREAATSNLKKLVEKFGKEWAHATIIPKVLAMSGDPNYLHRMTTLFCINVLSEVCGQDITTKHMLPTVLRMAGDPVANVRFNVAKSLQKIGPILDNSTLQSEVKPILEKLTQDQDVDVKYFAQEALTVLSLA
Sequence of protein phosphatase-2A1 (P63151 whole entry partner): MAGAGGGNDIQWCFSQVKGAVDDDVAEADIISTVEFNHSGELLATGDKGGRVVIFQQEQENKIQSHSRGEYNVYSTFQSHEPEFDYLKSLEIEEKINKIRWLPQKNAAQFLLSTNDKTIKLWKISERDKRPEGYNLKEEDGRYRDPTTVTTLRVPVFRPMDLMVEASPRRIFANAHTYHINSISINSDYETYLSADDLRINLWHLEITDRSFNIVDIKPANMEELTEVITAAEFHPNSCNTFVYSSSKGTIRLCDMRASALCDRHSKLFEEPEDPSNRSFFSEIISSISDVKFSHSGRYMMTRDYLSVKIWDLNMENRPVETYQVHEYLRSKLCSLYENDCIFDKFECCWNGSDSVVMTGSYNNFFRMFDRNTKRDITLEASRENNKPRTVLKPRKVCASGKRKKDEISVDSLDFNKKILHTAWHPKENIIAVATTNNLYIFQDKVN

`CC[C@H](C)[C@H](NC(=O)[C@H](CCCNC(=N)N)NC(=O)[C@H](CO)NC(=O)[C@H](Cc1c[nH]cn1)NC(=O)[C@H](CCCNC(=N)N)NC(=O)[C@H](CS)NC(=O)CNC(=O)[C@@H](NC(=O)[C@H](CCCNC(=N)N)NC(=O)[C@H](Cc1ccccc1)NC(=O)[C@@H](N)Cc1c[nH]cn1)[C@@H](C)CC)C(=O)NCC(=O)N[C@H](C(=O)N[C@H](C(=O)N[C@@H](CCCNC(=N)N)C(=O)N[C@@H](CCC(N)=O)C(=O)N[C@@H](CCCNC(=N)N)C(=O)N[C@@H](CCCNC(=N)N)C(=O)N[C@@H](C)C(=O)N[C@@H](CCCNC(=N)N)C(=O)N[C@@H](CC(N)=O)C(=O)NCC(=O)N[C@@H](C)C(=O)N[C@@H](CO)C(=O)N[C@@H](CCCNC(=N)N)C(=O)N[C@@H](CO)C(=O)O)[C@@H](C)O)C(C)C` [SYRAPRO-2000]: the “activity of protein phosphatase-2A1 in intact cells” value is “became activated”.
